Data set [1] is described as follows: effect of 17-DMAG on uninfected mice. In kind it is in vivo, BALB/c mice. The protocol:
(§1) Prior to the subculture of parasites, bovine and equine RBC were incubated with 1 μM of 17-DMAG for 3 h. The RBC were washed three times with PBS and mixed with B. bovis and T. equi parasitized RBC to obtain 1% parasitemia (infected RBC). Subsequently, 100 μl of infected RBC was added to 900 μl of complete medium in a 24-well plate. The untreated erythrocytes were used as a control. The parasitemia was monitored daily via microscopy observation of a Giemsa-stained blood smear for 4 days. Furthermore, the effect of 17-DMAG on mice was evaluated using 8-week-old BALB/c mice. Groups 1 and 2, consisting of three mice each, received intraperitoneal injections of 17-DMAG at a concentration of 15 and 30 mg/kg BW, respectively, for 5 days. One group (three mice) remained as an untreated control.

Another data set has as its system B. bovis. Put plainly: effect of 17-DMAG on host erythrocytes: parasite subculture in pretreated bovine RBC. In kind it is cell-based, Babesia bovis. As to conditions: bovine RBC incubated with 1 μM for 3 h, parasitemia 4 days. The protocol: as §1

In the case of `CO[C@H]1/C=C\C=C(/C)C(=O)NC2=CC(=O)C(NCCN(C)C)=C(C[C@@H](C)C[C@H](OC)[C@H](O)[C@@H](C)/C=C(\C)[C@@H]1OC(N)=O)C2=O` [17-DMAG, 17-dimethylaminoethylamino-17-demethoxygeldanamycin], the mouse body weight result is listed as “did not show any effect” in data set [1] (15 mg/kg BW intraperitoneal for 5 days) and “reduced slightly” in data set [1] (30 mg/kg BW intraperitoneal for 5 days, day 10 post treatment, not significantly different from control). Further, in the data set with B. bovis, the “multiplication of B. bovis in 17-DMAG-treated RBC versus normal RBC” value is given as “did not significantly differ”.

The values are drawn from publication PMC6114103, “17-DMAG inhibits the multiplication of several Babesia species and Theileria equi on in vitro cultures, and Babesia microti in mice” (International Journal for Parasitology: Drugs and Drug …, 2018).
